Measured values reported in patent publication US20100124538A1, “TOPICAL APPLICATION OF FLUOCINOLONE ACETONIDE FOR DEPIGMENTATION OF THE SKIN” (GALDERMA RESEARCH & DEVELOPMENT, priority 2007, published 2010).

How the values were obtained:
[1] = system: tail of SKH:HR2 mice; test: Fontana-Masson-positive surface area in living epidermis of the tail (histology, image analysis); format: in vivo; conditions: 4 weeks
Experimental: (§1) The depigmenting activity of fluocinolone acetonide and of hydrocortisone was evaluated on the tail of female SKH:HR2 mice that were 6 weeks old at the beginning of the study. The products were applied topically (20 μl of product to the tail), 5 days a week for 4 weeks. Each group contains 5 animals:
A tail skin sample is taken at the end of the study and fixed with formol in order to carry out a histological analysis.
The epidermal surface area taken up by melanin is measured by image analysis on histological sections stained by the Fontana-Masson technique, which makes it possible to reveal the pigments. For each animal, the Fontana-Masson-positive surface area is measured by image analysis on five fields of interfollicular epidermis and weighted with respect to the length of corresponding epidermis in order to avoid any possible bias due to hyperplasia or atrophy of the epidermis. Since the horny layer is partially lost during the treatment of the samples, the measurement is carried out only in the living layers of the epidermis.

[2] = system: tail of SKH:HR2 mice; test: Clinical pigmentation score on the tail of SKH:HR2 mice after topical application; format: in vivo; conditions: for depigmenting activity (clinical pigmentation score): 4 weeks
Experimental: as §1
Clinical observations: once a week the pigmentation is scored on a scale ranging from 0 (base pigmentation) to −4 (total depigmentation).
The depigmenting activities of three corticosteroids, fluocinolone acetonide, desonide and β-methasone valerate, were evaluated on the tail of female SKH:HR2 mice that were 8 weeks old at the beginning of the study. The products were applied topically (20 μl of product to the tail), 5 days a week for 5 weeks. Each group contains 6 animals.
Clinical observations: once a week, the pigmentation is scored on a scale ranging from 0 (base pigmentation) to −4 (total depigmentation).
The depigmenting activity of fluocinolone acetonide and of desonide was evaluated on the tail of female SKH:HR2 mice that were 8 weeks old at the beginning of the study. The products were applied topically (20 μl of product to the tail), 5 days a week for 4 weeks.

[3] = system: melasma; conditions: cited from earlier work
[4] = system: melasma; conditions: monotherapy; cited from earlier work

CC1(C)O[C@@H]2C[C@H]3[C@@H]4C[C@H](F)C5=CC(=O)C=C[C@]5(C)[C@@]4(F)[C@@H](O)C[C@]3(C)[C@]2(C(=O)CO)O1 [fluocinolone acetonide]
decrease in the Fontana-Masson-positive surface area in the living layers of the tail epidermis ([1]; 0.0005% topical): 72%
decrease in the Fontana-Masson-positive surface area in the living layers of the tail epidermis ([1]; 0.01% topical): 85%
depigmenting activity (clinical pigmentation score) ([2]; Example 1, 0.0005% topical): remains substantial
depigmentation of the tail (clinical pigmentation score) ([2]; Example 1, 0.01% topical, 5 days a week, after 4 weeks, compared with hydrocortisone at same concentration): marked depigmentation
depigmentation observed (clinical pigmentation score) ([2]; Example 2, 0.01% topical, after 5 weeks): virtually total
depigmenting activity compared with other corticosteroids ([2]; Example 2, equivalent concentration of 0.01%, 5 weeks): greater depigmenting activity than desonide and than β-methasone valerate
depigmenting activity (clinical pigmentation score) ([2]; Example 3, 0.005% topical): very significant depigmenting activity
depigmenting activity compared with desonide ([2]; Example 3, equivalent concentration, throughout the study (4 weeks)): remains greater than that of desonide

C[C@]12CCC(=O)C=C1CC[C@@H]1[C@@H]2[C@@H](O)C[C@@]2(C)[C@H]1CC[C@]2(O)C(=O)CO [hydrocortisone]
change of Fontana-Masson-positive surface area ([1]; up to the concentration of 0.5% topical): does not significantly modify
depigmenting activity (clinical pigmentation score) ([2]; Example 1, 0.01% increased to 0.5% topical): only a very weak depigmenting activity

CCC(=O)O[C@]1(C(=O)CCl)[C@@H](C)C[C@H]2[C@@H]3CCC4=CC(=O)C=C[C@]4(C)[C@@]3(F)[C@@H](O)C[C@@]21C [clobetasol propionate]
cases in which treatment had to be stopped due to local atrophy and telangiectasiae ([3]; 0.05% topical, stopped after 4 weeks): 30%
patients with lightening in whom the melasma reappeared at the same sites ([3]; 2 to 3 weeks after the treatment had been stopped): 57%

CC1=C(/C=C/C(C)=C/C=C/C(C)=C/C(=O)O)C(C)(C)CCC1 [tretinoin]
time necessary to obtain a significant result [4]: 40 weeks

Oc1ccc(O)cc1 [hydroquinone]
time necessary to obtain a significant result [4]: 12 weeks
